# Experimental data published in publication PMC11355249, “In Silico Identification and Molecular Mechanism of Novel Tyrosinase Inhibitory Peptides Derived from Nacre of Pinctada martensii” (Marine Drugs, 2024).
# Read-outs that look alike come from different tables or passages of the source. Peptide text beside a SMILES is read from it.
# Columns and labels:
# [1] = molecular target: T1, tyrosinase (from Mushroom) (Agaricus bisporus, UniProt C7FF04); test: Inhibition kinetics, Lineweaver-Burk double inverse plot and secondary plots; type: biochemical; conditions: read-out: inhibition constant on the free enzyme, Ki; substrate L-tyrosine; peptide 0, 0.3, 0.6, 1.2 mM
# T1 sequence (C7FF04 1-392): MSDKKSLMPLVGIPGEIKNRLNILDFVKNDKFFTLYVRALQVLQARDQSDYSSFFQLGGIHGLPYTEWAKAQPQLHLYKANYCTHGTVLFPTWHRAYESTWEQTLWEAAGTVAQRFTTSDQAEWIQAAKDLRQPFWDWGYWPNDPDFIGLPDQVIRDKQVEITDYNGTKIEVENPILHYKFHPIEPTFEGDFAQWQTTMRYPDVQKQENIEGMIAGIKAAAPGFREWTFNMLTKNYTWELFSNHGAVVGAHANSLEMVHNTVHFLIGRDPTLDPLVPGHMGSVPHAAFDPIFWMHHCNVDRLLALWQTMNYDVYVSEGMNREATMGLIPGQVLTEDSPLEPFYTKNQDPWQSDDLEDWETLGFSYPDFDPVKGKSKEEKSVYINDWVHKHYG
# Source text: Based on the observation that the inhibition of tyrosinase by the synthetic peptide AHYYD was reversible, the type of inhibition was further elucidated by constructing a Lineweaver–Burk double inverse plot of the enzymatic reaction rate against the concentration of the substrate (L-tyrosine). In this plot, the intercept with the Y-axis represents 1/Vmax, while the intercept with the X-axis represents −1/Km. […] The slope of the line increased with the rise in synthetic peptide concentration, indicating a mixed type of inhibition. By using the quadratic plotting method, the slopes of the four straight lines in the Lineweaver–Burk double inverse plot were plotted against the synthetic peptide concentration.
# Keeping the L-tyrosine concentration constant at 0.5 mg/mL, the concentrations of the synthetic peptide and tyrosinase were varied. The change in the OD475 absorbance value was continuously monitored at 37 °C after mixing. The enzyme concentration is plotted on the horizontal axis, while the rate of absorbance change is plotted on the vertical axis. Under the conditions of varying the peptide concentration and substrate concentration while keeping the tyrosinase solution constant, the reciprocal of the substrate concentration was plotted on the horizontal axis, and the reciprocal of the rate of absorbance change was plotted on the vertical ax.
# B16F10 cells [2] = test: Cell viability, CCK-8 assay; type: cell-based, mouse; conditions: 15–1200 μM, 48 h
# Method: The B16F10 cells were obtained from FengHui Biotechnology Co., Ltd. (Hunan, China). B16F10 cell cultures from generations 10–25 were grown in medium (DMEM supplemented with 10% fetal bovine serum, 1% antibiotic–antifungal solution) in a 5% CO2 incubator at 37 °C.
# Cell viability was assessed using the Cell Counting Kit-8 (CCK-8) assay. During the logarithmic growth phase, 100 µL of cell suspension was dispensed into 96-well plates, with 3000 cells per well, and the supernatant was removed after incubation at 37 °C for 24 h. Wells containing 100 µL of medium served as blank controls. Determination of viability after 48 h of sample treatment.
# [3] = molecular target: T1, tyrosinase (from Mushroom); type: biochemical; conditions: read-out: IC50 (mM), tyrosinase activity
# Method: (§1) We followed the method of Yu, with a slight modification. L-tyrosine solution (0.5 mg/mL), sample solution, and PBS buffer were sequentially added into the 96-well plate, thoroughly mixed, and then incubated at 37 °C for 10 min, then 20 μL of tyrosinase solution (500 U/mL) was added into each well, followed by immediate placement into the enzyme marker after the reaction at 37 °C for (10 min ± 5 s). The results were analyzed at 475 nm. DPPH and ABTS free-radical-scavenging capacity assays were conducted using kits from Grace Biotechnology Co., Ltd. (Jiangsu, China).
# B16F10 cells [4] = test: Intracellular ROS content; type: cell-based, mouse; conditions: B16F10, 75 μM
# Method: (§2) The cell culture and treatment methods were the same as those described in Section 3.12. The activities of catalase (CAT), glutathione peroxidase (GSH-Px), and superoxide dismutase (SOD) were determined using the assay kit from Nanjing Jianjian Bioengineering Research Institute (Nanjing, China). The ROS content was determined using the method provided by Biyuntian Bio-Technology Company Limited (Shanghai, China).
# B16F10 cells [5] = test: Antioxidant enzyme activity (CAT, GSH-Px, SOD) by kit; type: cell-based, mouse; conditions: B16F10, positive control 350 μM
# Method: as §2
# [6] = tested on: melanin content of B16F10 cells; test: Melanin content determination; type: cell-based, mouse; conditions: B16F10, Kojic acid 350 μM, 48 h
# Method: The cell culture stage for melanin content determination was as follows: the cells were washed twice with PBS buffer after 48 h of peptide treatment. Trypsin digestion was performed, and the cells were collected. The […] was removed by centrifugation for 5 min and the precipitate was lysed by dissolving it in 1 mol/L NaOH containing 10% DMSO for 1 h at 80 °C. Subsequently, the cell lysate was centrifuged at 12,000 rpm for 10 min. A total of 200 µL of the supernatant was transferred to a 96-well plate, and the absorbance was measured at 405 nm. The melanin content was then expressed as a percentage of the control group.
# [7] = tested on: tyrosinase activity in B16F10 cells; test: Intracellular tyrosinase activity (L-DOPA, 475 nm); type: cell-based, mouse; conditions: B16F10, Kojic acid 350 μM, 48 h
# Method: The cells in the logarithmic growth phase were seeded at a density of 2 × 10^5 cells per well in 6-well plates. After 24 h of culture, the supernatant was removed. […] After 48 h of incubation, the cells were lysed, and the cell lysates were centrifuged at 12,000 rpm for 10 min. The reaction mixture consisted of 50 µL of cell lysate supernatant, 50 µL of 1 mg/mL L-DOPA, and 50 µL of PBS buffer. The mixture was incubated at 37 °C for 1 h. The […] formation level was then measured spectrophotometrically at 475 nm. Tyrosinase activity was expressed as a percentage of the blank control.
# [8] = ABTS free-radical-scavenging capacity assay (kit); conditions: synthetic peptides
# Method: as §1
smiles,measurement,setting,value
"C[C@H](N)C(=O)N[C@@H](Cc1c[nH]cn1)C(=O)N[C@@H](Cc1ccc(O)cc1)C(=O)N[C@@H](Cc1ccc(O)cc1)C(=O)N[C@@H](CC(=O)O)C(=O)O [AHYYD, Ala-His-Tyr-Tyr-Asp] (H-AHYYD-OH)",Ki,[1],601 µM
same,viability of B16F10 cells compared to the control group,B16F10 cells [2],no significant difference
same,IC50,[3],2.01 ± 0.088 mM
"CC[C@H](C)[C@H](NC(=O)[C@@H]1CCCN1C(=O)[C@@H](N)CCCCN)C(=O)N[C@@H](Cc1c[nH]c2ccccc12)C(=O)N[C@H](C(=O)O)[C@@H](C)O [KPIWT, Lys-Pro-Ile-Trp-Thr] (H-KPIWT-OH; N-terminus and C-terminus assumed)",IC50,"[3]; synthetic peptides, Kojic acid positive control",> 10 mM
CC1=C(/C=C/C(C)=C/C=C/C(C)=C/C(=O)O)C(C)(C)CCC1 [tretinoin],"intracellular ROS levels, % of the untreated group",B16F10 cells [4],65.44%
O=c1cc(CO)occ1O [Kojic acid],increase of GSH-Px activity,B16F10 cells [5],52.85%
same,increase of SOD activity,B16F10 cells [5],68.92%
same,reduction of intracellular melanin content,[6],18.54%
same,reduction of intracellular tyrosinase activity,[7],19.51%
"C[C@@H](O)[C@H](N)C(=O)N[C@@H](Cc1ccccc1)C(=O)N[C@@H](CO)C(=O)NCC(=O)N[C@@H](CC(N)=O)C(=O)N[C@@H](Cc1ccc(O)cc1)C(=O)N1CCC[C@H]1C(=O)O [TFSGNYP, Thr-Phe-Ser-Gly-Asn-Tyr-Pro] (H-TFSGNYP-OH)",IC50,[3],> 5 mM
same,IC50 for ABTS clearance,[8],278.5 µg/mL
